pIC50: −log10 of the molar value. Like-named read-outs stand apart in the source and are kept apart here.

One data set deals with NCI60 cell lines. Kind of data set: GI50 in the NCI60 cell line panel. The format is cell-based. Conditions: Homo sapiens. As for the experimental part: (§1) Cells were seeded in 96-well plates, treated with different concentrations of drugs for 48 h, and cell viability was analyzed by MTT assays according to manufacturer's protocols. Experiments to determine GI50 with the NCI60 panel cell lines (http://dtp.nci.nih.gov/branches/btb/ivclsp.html) were performed at NCI (Alley et al, [1988]; Shoemaker, [2006]).

A further data set concerns MEFs. Kind of data set: GI50 in MEFs. The class given is cell-based. As for the experimental part: as §1
A further data set addresses HDAC1 (Homo sapiens, UniProt Q13547). Kind of data set: in vitro HDAC1 inhibition assay. The class given is biochemical.
Another data set deals with HDAC2 (Homo sapiens, UniProt Q92769). Kind of data set: in vitro HDAC inhibition assay, HDAC2. The format is biochemical.
In the next data set the target is HDAC3 (Homo sapiens, UniProt O15379). Kind of data set: in vitro HDAC inhibition assay, HDAC3. The class given is biochemical.
The target of the next data set is HDAC4 (Homo sapiens, UniProt P56524). Kind of data set: in vitro HDAC inhibition assay, HDAC4. The format is biochemical.
For a further data set, the target named is T1, HDAC6 (Homo sapiens, UniProt Q9UBN7).
T1 sequence (Q9UBN7 1-1215): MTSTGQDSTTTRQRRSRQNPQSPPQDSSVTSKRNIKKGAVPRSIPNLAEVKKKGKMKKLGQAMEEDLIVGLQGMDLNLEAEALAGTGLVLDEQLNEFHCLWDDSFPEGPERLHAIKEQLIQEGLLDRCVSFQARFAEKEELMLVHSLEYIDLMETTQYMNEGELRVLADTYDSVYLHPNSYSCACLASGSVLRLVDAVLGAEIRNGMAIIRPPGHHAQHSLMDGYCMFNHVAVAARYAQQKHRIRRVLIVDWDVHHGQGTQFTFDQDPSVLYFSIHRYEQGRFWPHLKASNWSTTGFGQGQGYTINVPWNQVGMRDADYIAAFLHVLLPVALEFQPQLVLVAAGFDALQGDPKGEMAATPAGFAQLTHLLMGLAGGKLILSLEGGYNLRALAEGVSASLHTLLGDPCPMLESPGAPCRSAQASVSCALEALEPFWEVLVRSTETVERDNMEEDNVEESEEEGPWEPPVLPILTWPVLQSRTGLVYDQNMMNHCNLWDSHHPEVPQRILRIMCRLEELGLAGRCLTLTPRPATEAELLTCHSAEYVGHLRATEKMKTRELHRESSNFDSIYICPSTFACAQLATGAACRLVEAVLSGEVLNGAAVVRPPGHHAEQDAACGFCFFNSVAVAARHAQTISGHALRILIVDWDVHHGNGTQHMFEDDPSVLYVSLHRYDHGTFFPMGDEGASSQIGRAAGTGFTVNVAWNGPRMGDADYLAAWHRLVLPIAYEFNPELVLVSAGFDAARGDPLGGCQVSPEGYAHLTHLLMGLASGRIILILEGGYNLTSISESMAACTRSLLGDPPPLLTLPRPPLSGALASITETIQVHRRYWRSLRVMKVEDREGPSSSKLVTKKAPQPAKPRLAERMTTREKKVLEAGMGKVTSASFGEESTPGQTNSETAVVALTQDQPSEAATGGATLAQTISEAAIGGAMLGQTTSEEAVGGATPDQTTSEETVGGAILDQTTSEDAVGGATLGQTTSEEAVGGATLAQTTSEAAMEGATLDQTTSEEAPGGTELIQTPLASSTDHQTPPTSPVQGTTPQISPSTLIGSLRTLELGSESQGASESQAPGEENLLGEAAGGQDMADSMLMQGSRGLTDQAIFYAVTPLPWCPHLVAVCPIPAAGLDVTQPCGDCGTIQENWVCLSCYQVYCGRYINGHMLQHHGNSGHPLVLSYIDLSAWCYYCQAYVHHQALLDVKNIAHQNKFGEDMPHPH
Kind of data set: in vitro HDAC inhibition assay, HDAC6. The format is biochemical.

In data set [1] the test system is HDAC activities in H1650 cells. Kind of data set: histone acetylation markers by Western blot in H1650 cells. The class given is cell-based. To be noted: 12 h, 20 μM CY, 20 μM CpdA, 200 μM CpdB, 200 μM Bend. Background: In western blotting, separated proteins are transferred to a membrane and probed.
For data set [2], the system named is CBP, TIP60, MORF, and MSL1 expression in H1650 cells. The class given is cell-based.
A short description of data set [3]: maximally tolerated dose in mice. Conditions: female, C57BL/6, mouse, in vivo. The method, then: (§2) Experimental procedures were approved by the Animal Care and Use Committee of Shanghai Institute of Biochemistry and Cell Biology, Chinese Academy of Sciences. In all, 200 wild-type C57BL/6 mice (6 weeks old, female) were used for determining maximally tolerated dose of CY, and testing CY and other drugs' efficacy in the BCR-ABL ALL model. BCR-ABL cells have been previously described (Williams et al, [2006]). For in vivo experiments, 1 million cells were injected into mice via tail vein (Williams et al, [2006]). At 7 days postinjection, mice were treated with indicated drugs at their MTDs. Mice were monitored daily for survival after drug treatment. Survival curve and statistical analysis were done using the Prism software. For xenograft H460 model, in all, nude mice (8 weeks old, female) were used to test CY and bendamustine's in vivo efficacy. The numbers of mice used in each experimental group are labeled on Fig4.

Data set [4] relates to BCR-ABL Arf−/− murine ALL cells. Kind of data set: activity against BCR-ABL ALL cells in vitro. The class given is cell-based. The method, then:
Cell lines were cultured using standard protocols provided by ATCC. Myc Arf^−/− cells were cultured as described (Jiang et al, [2009]). BCR-ABL mouse ALL cells were a kind gift from Dr. Richard Williams. CY190602 and its derivatives compound A and B were synthesized by Dr. Wang's Laboratory (U. New Mexico). Other chemicals were purchased from Selleck, EMD, or VWR. Antibodies against γ-H2AX (Millipore), actin (Sigma), H3K18Ac, H3K9Ac, and H3K56Ac (Cell Signaling) were used for Western blotting.
as §1

For a further data set, the system named is BCR-ABL ALL cells. Kind of data set: survival of mice transplanted with BCR-ABL ALL cells. Conditions: for survival extension: treatment at MTD, mice transplanted with BCR-ABL ALL cells. The format is in vivo. The method, then: as §2, with “BCR-ABL cells have been previously described (Williams et al, [2006]). For in vivo experiments, 1 million cells were injected into mice via tail vein (Williams et al, [2006]).” left out

Data set [5] concerns human NSCLC cell line H460. Kind of data set: H460 xenograft in nude mice. The class given is in vivo. Conditions: single dose CY 20, 40, 60 mg/kg; bendamustine 40 mg/kg. The method, then:
as §2

A further data set relates to human CLL cells. The class given is cell-based.
Data set [6] in a line: viability of healthy primary B cells. Conditions: human, healthy primary CD19+ B cells from blood donors, 20 μM CY. The class given is cell-based. The source says: This study was approved by the ethics committee of the University of Cologne (approval 01-163). Blood samples were obtained from patients fulfilling diagnostic criteria for CLL with informed consent according to the Helsinki protocol. Only patients without prior therapy or at least 12 months without prior chemotherapy were included in this study. Fresh blood samples were enriched by applying B-RosetteSep (StemCell Technologies, Vancouver, Canada) to aggregate unwanted cells with erythrocytes and Ficoll-Hypaque (Seromed, Berlin, Germany) density gradient purification resulting in purity > 98% of CD19^+/CD5^+ CLL cells. CLL cells were characterized for CD19, CD5, CD23, FMC7, CD38, ZAP-70, slgM, slgG, CD79a, and CD79b expression on a FACSCanto flow cytometer (BD PharMingen, Heidelberg, Germany). Controls were isolated from healthy blood donors using anti-CD19 MACS beads (Miltenyi, Bergisch Gladbach, Germany) resulting in at least 95% CD19^+ B cells.
Apoptosis was determined by flow cytometry using Annexin V-FITC/7AAD staining (BD PharMingen) after 72 h. […] The fraction of viable cells was determined by counting annexin V/7-AAD double-negative cells for each individual dosage. Median values were subsequently applied for regression analysis and calculation of the half-maximal dosage effect (IC50). […] IC50 values were determined by fitting data to the Hill equation y = y0 + (axb)/(cb+xb).

The next data set deals with human AML cells. Kind of data set: patient derived xenograft mouse model of human AML. Conditions: done by other collaborators; review file. For orientation: Xenograft models place foreign cells or tissue in a host animal.
In the next data set the test system is HDAC1-6. Kind of data set: cell-free HDAC activity assays, HDAC1-6 overall. The format is biochemical. To be noted: Fig2A and 2B.
For data set [7] the following is noted: mice; ref according to the literature; cited from earlier work.
The next data set deals with human cancer cell lines. Kind of data set: cancer cell killing / MTT viability (LD50). The format is cell-based.
The next data set relates to γ-H2AX in H1650 cells. Kind of data set: γ-H2AX Western blot (DNA damage) in H1650 cells. Conditions: 12 h. The class given is cell-based.
The mark [8] stands for this setting: median over NCI60 cell lines, read-out: median growth inhibitor concentration (GI50).
The mark [9] stands for this setting: H1650 cells, 6 h, bendamustine 350 μM, CY 15 μM, SAHA 10 μM.

Chain of HDAC1 (Q13547 whole entry): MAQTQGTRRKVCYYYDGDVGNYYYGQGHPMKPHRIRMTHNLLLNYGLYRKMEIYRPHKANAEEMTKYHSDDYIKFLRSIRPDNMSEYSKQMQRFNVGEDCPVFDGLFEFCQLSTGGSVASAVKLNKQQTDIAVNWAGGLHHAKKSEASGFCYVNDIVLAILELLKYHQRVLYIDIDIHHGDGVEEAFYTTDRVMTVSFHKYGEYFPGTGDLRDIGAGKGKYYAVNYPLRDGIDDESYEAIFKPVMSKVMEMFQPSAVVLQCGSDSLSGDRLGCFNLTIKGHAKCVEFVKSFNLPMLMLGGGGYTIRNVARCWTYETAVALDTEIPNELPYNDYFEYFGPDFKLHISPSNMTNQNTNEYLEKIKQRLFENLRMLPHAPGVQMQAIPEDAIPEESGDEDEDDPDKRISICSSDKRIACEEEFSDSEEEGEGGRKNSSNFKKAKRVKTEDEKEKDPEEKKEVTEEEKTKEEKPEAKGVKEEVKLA
Chain of HDAC4 (P56524 whole entry): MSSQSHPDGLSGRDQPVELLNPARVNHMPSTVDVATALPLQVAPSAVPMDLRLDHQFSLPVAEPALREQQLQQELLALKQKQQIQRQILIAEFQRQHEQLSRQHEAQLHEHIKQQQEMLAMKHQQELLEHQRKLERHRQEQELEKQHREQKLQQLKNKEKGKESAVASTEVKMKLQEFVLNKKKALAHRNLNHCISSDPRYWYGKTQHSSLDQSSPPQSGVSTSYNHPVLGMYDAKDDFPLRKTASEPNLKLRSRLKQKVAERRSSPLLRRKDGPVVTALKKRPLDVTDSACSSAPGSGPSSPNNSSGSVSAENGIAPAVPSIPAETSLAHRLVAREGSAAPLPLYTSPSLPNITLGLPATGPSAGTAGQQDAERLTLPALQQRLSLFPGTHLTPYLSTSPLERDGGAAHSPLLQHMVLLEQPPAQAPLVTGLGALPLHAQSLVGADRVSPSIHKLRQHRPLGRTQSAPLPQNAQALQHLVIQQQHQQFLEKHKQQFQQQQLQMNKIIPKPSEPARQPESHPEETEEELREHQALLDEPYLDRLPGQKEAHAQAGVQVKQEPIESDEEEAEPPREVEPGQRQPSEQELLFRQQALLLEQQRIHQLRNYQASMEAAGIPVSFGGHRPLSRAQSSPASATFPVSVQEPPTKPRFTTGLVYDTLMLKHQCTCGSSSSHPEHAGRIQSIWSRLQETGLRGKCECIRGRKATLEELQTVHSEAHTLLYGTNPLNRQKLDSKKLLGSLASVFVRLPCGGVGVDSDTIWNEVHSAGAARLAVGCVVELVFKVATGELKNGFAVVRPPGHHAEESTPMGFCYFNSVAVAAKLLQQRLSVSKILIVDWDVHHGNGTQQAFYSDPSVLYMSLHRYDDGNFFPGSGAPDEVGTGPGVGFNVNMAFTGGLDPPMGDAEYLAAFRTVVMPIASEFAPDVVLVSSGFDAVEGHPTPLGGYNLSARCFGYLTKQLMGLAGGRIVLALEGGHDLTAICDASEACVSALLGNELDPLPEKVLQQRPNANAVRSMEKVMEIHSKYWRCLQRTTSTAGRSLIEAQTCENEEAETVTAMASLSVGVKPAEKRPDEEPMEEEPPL
Chain of HDAC2 (Q92769 whole entry): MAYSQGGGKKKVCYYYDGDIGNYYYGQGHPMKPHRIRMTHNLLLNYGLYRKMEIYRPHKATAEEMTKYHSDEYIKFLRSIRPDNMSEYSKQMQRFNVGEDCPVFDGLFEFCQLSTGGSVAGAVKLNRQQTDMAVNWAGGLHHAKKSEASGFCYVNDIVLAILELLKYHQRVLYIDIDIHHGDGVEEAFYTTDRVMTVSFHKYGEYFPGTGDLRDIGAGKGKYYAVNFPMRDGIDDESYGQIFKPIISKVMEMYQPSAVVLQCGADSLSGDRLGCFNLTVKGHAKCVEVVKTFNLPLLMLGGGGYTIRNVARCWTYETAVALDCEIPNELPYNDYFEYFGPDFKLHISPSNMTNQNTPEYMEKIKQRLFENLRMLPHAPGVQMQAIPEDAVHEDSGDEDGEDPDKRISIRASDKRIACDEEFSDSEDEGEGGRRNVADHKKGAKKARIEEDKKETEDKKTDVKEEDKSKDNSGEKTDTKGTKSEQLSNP
Chain of HDAC3 (O15379 whole entry): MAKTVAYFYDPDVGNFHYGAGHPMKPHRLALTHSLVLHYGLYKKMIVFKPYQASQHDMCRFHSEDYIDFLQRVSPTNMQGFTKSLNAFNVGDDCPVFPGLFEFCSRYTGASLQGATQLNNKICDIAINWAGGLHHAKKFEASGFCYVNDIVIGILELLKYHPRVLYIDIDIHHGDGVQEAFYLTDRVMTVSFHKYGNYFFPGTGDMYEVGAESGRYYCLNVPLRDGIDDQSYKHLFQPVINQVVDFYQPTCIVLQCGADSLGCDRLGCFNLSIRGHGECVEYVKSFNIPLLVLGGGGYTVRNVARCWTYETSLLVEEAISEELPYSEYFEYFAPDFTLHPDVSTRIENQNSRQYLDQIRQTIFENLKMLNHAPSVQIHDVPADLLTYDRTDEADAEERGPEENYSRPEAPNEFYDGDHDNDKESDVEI
Chain of HDAC3 (Q9Y618 395-489 partner limits assumed): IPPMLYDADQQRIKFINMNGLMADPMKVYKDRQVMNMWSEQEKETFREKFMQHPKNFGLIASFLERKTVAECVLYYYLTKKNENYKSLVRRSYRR

A word on the pIC50: it is the negative decadic logarithm of the IC50, by convention in mol/L. Lower therefore signals a large IC50. Usually viability stands for a read-out of living cells in per cent, often relative to untreated cells. A higher viability goes with better survival. As to `Cn1c(CCCCCCC(=O)NO)nc2cc(N(CCCl)CCCl)ccc21` [CY190602], the GI50 turned out to be 3200 nM with NCI60 cell lines (average over NCI60 cell lines, read-out: average GI50); 2200 nM in the data set on NCI60 cell lines (setting [8]); 57000 nM with MEFs. Also, the pIC50 was 8.05 against HDAC1 (HDAC1 Assay (plot legend value), Fig 2A upper panel); 7.77 on HDAC1 (IC50 of CY, HDAC1, Fig 2A lower panel); 8.00 against HDAC2; 7.60 on HDAC3; 8.19 on HDAC4; 7.14 at HDAC6. In data set [1], the “inhibition of HDAC activities in cancer cells (histone acetylation markers)” value (from here on “inhibition of HDAC activities”) is given as “inhibited HDAC activities”. In addition, the “expression of Tip60, CBP, MORF and MSL1” value in data set [2] (setting [9]) is “greatly suppressed”. Further, the MTD in [3] amounted to 60 mg/kg. Further, the “activity in cultured BCR-ABL ALL cells compared with bendamustine” value in [4] was “more active than bendamustine”. In addition, in the data set on BCR-ABL ALL cells (drugs at MTD), the “survival extension compared with cyclophosphamide, doxorubicin, cytarabine, and vincristine” value was “superior to these drugs”. The survival extension with BCR-ABL ALL cells amounted to 14 days. In addition, in data set [5], the “anticancer activity in H460 xenograft compared with bendamustine” value was “superior to bendamustine”. Further, in the data set on human CLL cells (5 μM, 72 h), the “CLL cells killed at 5 μM” value was “nearly all”. Moreover, the viability at 72 h, 20 μM in data set [6] is approximately 40%. For the same compound, the “effect on AML cells” value in the data set on human AML cells was “nearly eliminated AML cells”. In the data set with human AML cells, the “effect on mouse CD45+ (hematopoeitc lineage) cells” value is “minimal effect”.

For the compound `Nc1ccn([C@@H]2O[C@H](CO)[C@@H](O)[C@@H]2O)c(=O)n1` [Cytarabine, reference compound], in the data set with human AML cells, the “effect on AML cells” value was “didn’t kill AML cells as quickly, or as thoroughly as did CY” and the “effect on mouse CD45+ (hematopoeitc lineage) cells” value was “nearly wiped out CD45+ cells”.

Regarding `CC(C)n1nc(-c2cc3cc(O)ccc3[nH]2)c2c(N)ncnc21` [PP242], the “survival extension, daily treatment” value in the data set on BCR-ABL ALL cells (daily dose) amounted to 8 days.

`O=C(CCCCCCC(=O)Nc1ccccc1)NO` [SAHA]: the “expression of Tip60, CBP, MORF and MSL1” value in data set [2] is “significant suppression”. For the same compound, the survival extension entry with BCR-ABL ALL cells is “approximately 2 days”.

Consider `Cn1c(CCCC(=O)O)nc2cc(N(CCCl)CCCl)ccc21` [bendamustine], for which the GI50 in the data set with NCI60 cell lines (setting [8]) is 77000 nM; with NCI60 cell lines (read-out: GI50 for most cancer cell lines of the NCI 60 test) it was more than 100000 nM; in the data set on MEFs (MEFs, authors' response in review file) it was approximately 390000 nM. For the same compound, the “HDAC inhibition” value in the data set on HDAC1-6 is on record as “inability to inhibit HDAC”. Moreover, the “inhibition of HDAC activities” value in data set [1] is reported as “not”. Further, the “expression of Tip60, CBP, MORF and MSL1” value in [2] (setting [9]) is “not”. Also, the survival extension in the data set on BCR-ABL ALL cells is approximately 5 days. For the same compound, the “CLL cells killed at 100 μM” value with human CLL cells (100 μM, 72 h) is “about 80%”. For the same compound, in data set [7], the MTD is on record as 40 mg/kg.

Turning to `Cn1c(CCCCCCC(=O)NO)nc2cc(N(CCO)CCO)ccc21` [compound A], the “synergy with bendamustine in killing cancer cells” value in the data set with human cancer cell lines (nontoxic dose of Cpd A plus bendamustine) was “significantly synergized with bendamustine”. Besides, the “killing of cancer cells” value in the data set with human cancer cell lines (up to 200 μM, 48 h) was “very ineffective in killing cancer cells”. Further, the “inhibition of HDAC activities” value in data set [1] is “inhibited HDAC activities”. Besides, the “level of γ-H2AX in bendamustine-treated cells” value with γ-H2AX in H1650 cells (100 μM Bend plus 50 μM Cpd A) is “significantly increased”. Also, the “DNA damage (γ-H2AX) by the compound alone” value in the data set on γ-H2AX in H1650 cells (H1650 cells) is given as “did not cause DNA damage”.

As to `Cn1c(CCCCCCC(=O)O)nc2cc(N(CCCl)CCCl)ccc21` [compound B], the “inhibition of HDAC activities” value was “little HDAC inhibitory activity” in data set [1] and “not” in [1] (listed as CpdB).

In the case of `Nc1nc(F)nc2c1ncn2[C@@H]1O[C@H](CO)[C@@H](O)[C@@H]1O` [fludarabine], the “CLL cells killed at 100 μM” value in the data set on human CLL cells is recorded as “about 80%”.

Values taken from article PMC4403045 (EMBO Molecular Medicine, 2015).
